Data as given in patent publication US9562082B2, “Production of glycoproteins with low N-glycolylneuraminic acid (Neu5Gc) content” (LEK Pharmaceuticals D.D., priority 2009, dated 2017).

Experiments:
[1] = system: Recombinant CHO cells; assay: Neu5Gc content of glycoprotein secreted by CHO cells cultivated with medium additives (RP-HPLC of DMB-labelled sialic acids); assay type: cell-based, Chinese hamster
Text: Recombinant CHO cells expressing high titres of the glycosylated human glycoproteins were cultivated in suspension culture using rich in-house standard medium without additives according to the invention. After 2 weeks of passages, the cells were first harvested and subsequently inoculated into the same medium, however, supplemented with a range of DMSO concentrations from 0.25% to 1.50% (w/v). The effect of DMSO on growth, productivity, degree of sialylation, and Neu5Gc content was studied.
“One factor at the time”-experiments with different DMSO concentrations at 37° C. and 33° C., respectively, were performed at first in an attempt to determine the DMSO concentration and temperature which are best to minimise the Neu5Gc content on the glycoproteins secreted. To study the interaction between the parameters (i) DMSO concentration, (ii) time of DMSO addition, and (iii) time of the temperature shift (from 37° C. to 33° C.), further experiments were performed with the Design-Expert/Design-Ease programme (Stat-Ease, Inc., Minneapolis, Minn., USA) using the response surface method. Parameters (i), (ii), and (iii) were chosen as numeric factors and the axial points were set slightly out of already known ranges in order to cover a wide design space. One replicate on axial points, one replicate on factorial points and 4 centre points were performed. The results were analysed using the Design of Expert (DOE) software (Design-Expert, Version 7.1). The results of the shake flask experiments were confirmed in the Biostat®B bioreactor (Sartorius, B. Braun Biotech International, Germany). Exponentially growing cells were taken from cell culture flasks having a surface area of 225 cm^2 (Corning®Costar®). A Biostat®B bioreactor with a working volume of 5 litres was inoculated with 2×10^5 cells/ml. Cells were cultivated in a batch mode under standard conditions (37° C., pH 7.0, dissolved oxygen concentration (DOT) 50%) in the rich in-house standard medium supplemented with 0.75% (w/v) DMSO.
In order to study the effect of key intermediates of the metabolic pathway leading to the sialylation of the glycoproteins and consequently to the conversion of Neu5Ac to Neu5Gc, a two factorial minimal resolution IV design, which allows for the estimation of the main effects, was established. Said design allowed the determination which of the components NAcMan, NAcGlc, Man, Fru, and Gal has/have an impact on the degree of sialylation and conversion of Neu5Ac to Neu5Gc. To confirm the results from the DOE findings, the production medium was enriched with 8.75 mM NAcMan and 8.75 mM NAcGlc in combination with manganese (Mn^2+) salts in different concentrations, e.g., in the concentrations mentioned earlier in this application.
At the end of the batch culture the cells were removed. The glycoproteins were purified from the remaining harvests by means of immuno-affinity chromatography. Briefly, up to 2 mg of each of the glycoproteins per ml of the chromatographic resin (20-500 ml of the harvest) were loaded onto the column. Elution of the glycoproteins was performed with 0.1 M Na-phosphate buffer, pH 2.5. By adding 1 M Na-phosphate buffer, pH 7.5 (made up by a combination of Na2H-phosphate and NaH2-phosphate), the pH of the eluate was immediately adjusted to 7 and then stored for further analysis at below −60° C.
Sialic acids (Neu5Gc, Neu5Ac, Neu-5,7Ac2, Neu5Gc9Ac, Neu-5,9Ac2, Neu-5,8,9Ac3) were differentiated using highly sensitive RP-HPLC. Enzymatic desialylation with neuraminidase (a2-3,6,8,9-neuraminidase (Sialidase) from Arthrobacter ureafaciens, Roche, USA) released sialic acids. The released sialic acids were labelled with the fluorescent dye 1,2-diamino-4,5-methylenedioxybenzene (DMB). DMB-labelling is non-selective and therefore provides a pool of labelled sialic acid derivates in stoichiometric amounts. Derivates of the DMB-labelled sialic acids were separated on an RP-HPLC column using isocratic elution. […]

[2] = system: Recombinant CHO cells; assay: Titre of secreted glycoprotein by ELISA; assay type: cell-based, Chinese hamster
Procedure: Cell viability was determined by the trypan blue exclusion method. The cell concentration was determined using a Vi-CELL™ Series Cell Viability Analyzer (Beckman Coulter, Fullerton, Calif., USA). Glucose, lactate, glutamine, and ammonia (NH4^+) concentrations were measured during the growth phase using a BioProfile Analyzer for mammalian cell culture (BioProfile 100 plus, Nova Biomedical, Waltham, USA). Additionally, oxygen and […] concentrations were monitored daily using pHOx (Stat Prophile pHOx Basic, Nova Biomedical, Waltham, USA). Secreted glycoprotein concentrations were quantified by enzyme linked immunosorbent assay (ELISA), and the titres were expressed in μg/ml.
The concentration of the secreted glycoproteins was quantified using an enzyme linked immunosorbent assay kit from R&D Systems (R&D Systems, Inc., Minneapolis, Minn., USA) according to the manufacturer's instructions. Microplate wells, pre-coated with monoclonal (mouse) antibodies specific for the respective glycoproteins expressed were first incubated with standard blank samples and specimens. […] The absorbance of the coloured solution was measured photometrically at 450 nm (Micro plate reader, Tecan, Columbus, USA) and was proportional to the concentration of the glycoprotein in the sample.

Structure (SMILES): C[S+](C)[O-] [DMSO, dimethyl sulfoxide]
- average Neu5Gc content for all glycoproteins tested ([1]; 0.25% DMSO): 1.46%
- average Neu5Gc content for all glycoproteins tested ([1]; 0.5% DMSO): 1.17%
- content of Neu5Gc lowered by ([1]; 0.75% (w/v) DMSO, 5 litre bioreactor batch, vs batch without DMSO): 50-60%
- average Neu5Gc content for all glycoproteins tested ([1]; 0.75% DMSO): 0.93%
- average Neu5Gc content for all glycoproteins tested ([1]; 1% DMSO): 0.88%
- average Neu5Gc content for all glycoproteins tested ([1]; 1.25% DMSO): 0.79%
- Neu5Gc content ([1]; darbepoetin alfa, 0.75% (w/v) DMSO, FIG. 1b): about 0.9%
- content of Neu5Gc ([1]; darbepoetin alfa, bioreactor batch process, 0.75% (w/v) DMSO): about 1%
- content of Neu5Gc ([1]; darbepoetin alfa, shake flask batch process, 0.75% (w/v) DMSO): about 0.8%
- Titre, DOE point prediction ([2]; DMSO 0.75, temperature 37): 65.56 µg/mL
- titre ([2]; darbepoetin alfa, with DMSO): ~57 µg/mL
